Measured values taken from patent US8338420B1, “Treatment of Parkinson's disease and enhancement of dopamine signal using PDE 10 inhibitor” (Mitsubishi Tanabe Pharma Corporation, priority 2002, dated 2012).

Legend:
PDE5 = molecular target: T1, PDE5 (Canis lupus familiaris, UniProt O77746); assay: PDE assay, PDE5 enzyme solution from canine lung; assay type: biochemical; settings: substrate about 12 nM [3H]-cGMP and 1 μM cGMP
T1 construct: These were used as a PDE5 enzyme solution for PDE assay; tissue Oriental Yeast (animals); host or cells: canine lung, soluble fraction, DEAE Sepharose fractions
Protocol: In the same manner as in (1-4) above, the supernatant obtained from the homogenate of canine lung tissue was applied to chromatography under FLPC system, to collect eluted fractions of 2 ml each.
Subsequently, the eluted fractions were used as an enzyme solution for PDE assay, and cGMP-hydrolyzing activity was measured for respective fractions, in the presence or absence of E4021, the PDE5 specific inhibitor.
Further, for examining contamination of PDE1, which is adjacently eluted, cGMP-hydrolyzing PDE activity of the respective fractions were measured in the same assay buffer containing EGTA (final concentration of 1 mM) [or calcium chloride (final concentration of 2 mM) and calmodulin (40 units/ml)].
These fractions were collected and glycerol was added thereto to become 50%, and the mixture was stored at −20° C. These were used as a PDE5 enzyme solution for PDE assay.

PDE4 = assay: PDE assay, PDE4 enzyme solution from dog lung; assay type: biochemical, mixed-breed dog; settings: substrate about 4.8 nM [3H]-cAMP and 1 μM cAMP
Protocol: These fractions were collected and glycerol was added thereto to become 50%, and the mixture was stored at −20° C.

PDE11 (PDE11A) = molecular target: T2, PDE11 (PDE11A) (Homo sapiens, UniProt Q9HCR9); assay: PDE assay, recombinant human PDE11A; assay type: biochemical; settings: substrate about 12 nM [3H]-cGMP and 1 μM cGMP
T2 construct: His tag (hexahistidine, pcDNA4/HisMax) (N); made in house
T2 sequence (Q9HCR9 whole entry): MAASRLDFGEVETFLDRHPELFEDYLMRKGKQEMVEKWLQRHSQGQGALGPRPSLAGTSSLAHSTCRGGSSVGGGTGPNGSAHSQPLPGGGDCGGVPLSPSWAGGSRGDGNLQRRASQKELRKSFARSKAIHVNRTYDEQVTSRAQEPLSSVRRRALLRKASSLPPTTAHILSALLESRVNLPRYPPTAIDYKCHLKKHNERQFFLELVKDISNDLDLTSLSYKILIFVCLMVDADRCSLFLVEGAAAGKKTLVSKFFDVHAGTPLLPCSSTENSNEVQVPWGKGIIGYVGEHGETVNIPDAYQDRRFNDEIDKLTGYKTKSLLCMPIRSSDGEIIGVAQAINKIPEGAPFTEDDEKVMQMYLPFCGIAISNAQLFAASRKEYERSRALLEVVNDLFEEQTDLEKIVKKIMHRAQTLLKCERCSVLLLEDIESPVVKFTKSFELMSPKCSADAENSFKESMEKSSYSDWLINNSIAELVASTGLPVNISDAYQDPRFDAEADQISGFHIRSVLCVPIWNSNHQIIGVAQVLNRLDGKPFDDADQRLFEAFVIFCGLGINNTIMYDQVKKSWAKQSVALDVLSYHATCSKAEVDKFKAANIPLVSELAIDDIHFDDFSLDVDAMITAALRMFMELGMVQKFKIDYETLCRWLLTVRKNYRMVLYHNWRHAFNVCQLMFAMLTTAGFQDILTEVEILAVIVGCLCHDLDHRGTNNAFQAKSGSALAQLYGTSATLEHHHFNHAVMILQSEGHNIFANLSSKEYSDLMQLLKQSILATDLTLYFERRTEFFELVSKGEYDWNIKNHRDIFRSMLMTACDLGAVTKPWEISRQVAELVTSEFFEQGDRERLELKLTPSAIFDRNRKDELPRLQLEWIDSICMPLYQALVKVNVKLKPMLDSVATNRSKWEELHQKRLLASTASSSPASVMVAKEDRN
Source text: Based on the information of cDNA sequence of human PDE7A (Genbank/EMBL Accession No. NM002603), a cDNA encoding human PDE7A was cloned by PCR method, according to a method described in Sasaki et al. (Sasaki et al., Biochem. Biophys. Res. Commun., vol. 271, pp. 575-583, 2000). Further, based on the information of cDNA sequence of human PDE8A (Genbank/EMBL Accession No. AF388183), a cDNA encoding human PDE8A was cloned by PCR method, according to a method described in Gamanuma et al. (Gamanuma et al., Cell Signal, 2003, vol. 15, pp. 565-574). Further, a cDNA encoding human PDE11A was obtained, according to a method reported in Yuasa et al. (Yuasa et al., J. Biol. Chem., vol. 275, pp. 31469-31479, 2000). Using these cDNAs, recombinant proteins of human PDE7A, human PDE8A, and human PDE11A were prepared as follows.
DNA fragments comprising a cDNA encoding human PDE7A, human PDE8A or human PDE11A were linked to pcDNA4/HisMax (available from Invitrogen), to give a vector plasmid for expression of human proteins, with a histidine tag peptide (hexahistidine), added to the N-terminus. COS-7 cells were transfected with these vector plasmids, and the cells were cultured in Dulbecco's modified Eagle medium containing 10% bovine fetal serum for about 24 hours. […]

[1] = system: neurons of corpus striatum; assay: Change in intracellular cAMP in primary cultured neurons of corpus striatum; assay type: cell-based, Wistar rat
Protocol: (1) Primary culture of neurons of corpus striatum Female Wistar rats on day 14 or day 15 of pregnancy were purchased from Japan SLC, Co. Ltd., and fetuses were taken out on day 18 of pregnancy. From the fetus, the brain was excised, and stored on ice-cold Leibovitz's L-15 medium (available from GIBCO) or on DMEM/F-12 medium (available from GIBCO). In the same medium, dura matter was removed and corpus striatum was collected. This striatum part was treated by trypsin to diffuse neurons, and the neurons were diluted and diffused in DMEM medium containing 10% bovine fetal serum. These neurons were inoculated in 48-well plate coated with 0.01% poly-L-lysine (available from Sigma) (2×10^5 cells/well) and cultured. On the next day, the medium was changed to Neurobasal medium (available from GIBCO), containing 50 fold-diluted B-27 supplement (available from GIBCO), and then, half of the medium was replaced on day 4, 7 and 9 of culture, to continue culture.
As in the above (1), neurons were cultured, and on day 10 of culture, the medium was removed, and then, a test compound (PDE10 inhibitors, etc.) diluted with Hank's balanced salt solution were added, and incubated at 37° C. for 15 minutes. Following that, forskolin (final concentration of 1 μM) or dopamine (final concentration of 100 nM) or D1 agonist (SKF82958 Sigma) (final concentration of 3 nM, 10 nM, 30 nM) was added thereto, and further incubated at 37° C. for 15 minutes.
Intracellular cAMP was measured using cAMP EIA kit available from Amersham Biosciences. Accordingly, after removing the reaction mixture, lysis buffer 1B (attached to cAMP EIA kit) was added to stop the reaction, and to lead cytolysis, and intracellular cAMPs were extracted. An amount of cAMPs in the extract was measured according to a protocol attached to the cAMP EIA kit.

COc1ccc(-c2cc(N3CCCC3)nc(/C=C/c3nc(-n4ccnc4)c4ccccc4n3)n2)cc1OC [Compound A, 2-{(E)-2-[4-(1-imidazolyl)-quinazolin-2-yl]}ethenyl-4-(3,4-dimethoxy)phenyl-6-(pyrrolidin-1-yl)pyrimidine]
IC50 (PDE5): > 1000 nM
IC50 (PDE4): 160 nM
IC50 (PDE11 (PDE11A)): > 1000 nM
intracellular cAMP increase caused by dopamine stimulus in neuron ([1]; compound concentration 1 μM, dopamine 100 nM): enhanced intracellular cAMP increase caused by dopamine stimulus
intracellular cAMP increase caused by D1 agonist (SKF82958) stimulus in neuron ([1]; compound concentration 10 μM, 1 μM): enhanced intracellular cAMP increase caused by D1 agonist
intracellular cAMP increase caused by forskolin stimulus in neuron ([1]; compound concentration 10 μM, 1 μM, forskolin 1 μM): enhanced intracellular cAMP increase caused by forskolin stimulus
